Laboratory results as given in patent US20250090699A1, “FAP TARGETING CYCLIC PEPTIDES AND CONJUGATES THEREOF” (Novartis AG, priority 2023, published 2025).
pIC50, pKd: −log10 of the molar value. Starred links: 1 amine or outer side, 2 acyl side, 3 side chain; linkers in the order of their positions; H or OH if unused. Positions of bridges follow the written chain, without caps; N, C: chain ends. Non-standard residues stand in square brackets, D forms with d. Residues, ends and D or L forms follow the SMILES beside them. Groups on a side chain read outwards from the residue. Chains are numbered I, II in the order given. *: point of attachment. F(4amPEG2NHDOTA-Lu) = lutetium complex of (S)-2,2',2''-(10-(1-(4-(2-amino-2-carboxyethyl)phenyl)-3,12-dioxo-5,8-dioxa-2,11-diazatridecan-13-yl)-1,4,7,10-tetraazacyclododecane-1,4,7-triyl)triacetic acid (Phe with 4-aminomethyl-PEG2-DOTA-Lu), O=C([O-])CN1CCN(CC(=O)[O-])CCN(CC(=O)NCCOCCOCC(=O)NCc2ccc(C[C@H](N[*:1])C(=O)[*:2])cc2)CCN(CC(=O)[O-])CC1.[Lu+3]; X1 = O=C(O)CN1CCN(CC(=O)O)CCN(CC(=O)NC(CC(=O)NCCOCCOCC(=O)[*:1])CC(=O)NCCOCCOCC(=O)[*:2])CCN(CC(=O)O)CC1; Q(Pyrro(2CN4F2)) = 2-amino-5-(2-cyano-4,4-difluoropyrrolidin-1-yl)-5-oxopentanoic acid; COpipzaa = 4-(carboxymethyl)piperazine-1-carbonyl, O=C(O)CN1CCN(C(=O)*)CC1; DOTA = O=C(O)CN1CCN(CC(=O)O)CCN(CC(=O)*)CCN(CC(=O)O)CC1; Phe(4-CH2NH2) = NCc1ccc(C[C@H](N)C(=O)O)cc1; Piperazinyl(4-CH2COOH) = O=C(O)CN1CCN(*)CC1; AEF = NCCOc1ccc(C[C@H](N)C(=O)O)cc1; NMeF = CN[C@@H](Cc1ccccc1)C(=O)O; Aoc(2) = CCCCCC[C@H](N)C(=O)O; Ahp(2) = CCCCC[C@H](N)C(=O)O; hSer = N[C@@H](CCO)C(=O)O; AEEA = NCCOCCOCC(=O)O; CO = O=C([*:1])[*:2]; Propyl = CCC*

Legend:
[1] = biological target: T1, mouse FAP (Mus musculus, UniProt P97321); assay: Surface plasmon resonance (SPR) for peptide affinity, mouse FAP; type: binding
T1 construct: biotinylated His, Avi tag, mouse FAP (26-761, FAP-M82Q5); His; Avi tag (biotinylated); purchased AcroBiosystems FAP-M82Q5
T1 sequence (P97321 26-761): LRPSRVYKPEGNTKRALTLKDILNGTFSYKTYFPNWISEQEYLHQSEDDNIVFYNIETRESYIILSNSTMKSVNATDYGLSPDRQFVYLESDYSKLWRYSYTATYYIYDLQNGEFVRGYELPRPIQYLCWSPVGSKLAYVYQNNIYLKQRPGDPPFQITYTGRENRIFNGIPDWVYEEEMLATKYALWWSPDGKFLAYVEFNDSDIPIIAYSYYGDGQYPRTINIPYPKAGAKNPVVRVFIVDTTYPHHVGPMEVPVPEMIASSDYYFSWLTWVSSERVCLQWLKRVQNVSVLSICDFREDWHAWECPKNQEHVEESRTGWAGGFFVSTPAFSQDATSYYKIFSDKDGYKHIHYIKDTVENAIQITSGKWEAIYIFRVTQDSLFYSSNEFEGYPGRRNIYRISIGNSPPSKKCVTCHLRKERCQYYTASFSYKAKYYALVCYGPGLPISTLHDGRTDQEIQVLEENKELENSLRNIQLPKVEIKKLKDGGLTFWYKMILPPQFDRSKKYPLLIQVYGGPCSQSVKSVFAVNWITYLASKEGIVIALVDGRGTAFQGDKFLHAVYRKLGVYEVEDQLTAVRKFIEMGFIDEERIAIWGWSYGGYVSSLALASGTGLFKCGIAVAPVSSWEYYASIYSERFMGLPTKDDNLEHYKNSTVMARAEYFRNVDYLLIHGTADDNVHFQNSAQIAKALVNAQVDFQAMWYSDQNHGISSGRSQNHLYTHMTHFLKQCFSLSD
In short: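 KD values come from a 1:1 kinetic fit of single-cycle SPR data: 8 peptide concentrations, 25 °C, 30 μL/min, HEPES-buffered saline pH 7.6 with 2% DMSO. Targets were His/Avi-tagged human (26-760) or mouse (26-761) FAP, amine-coupled to CM5 or held on a CAPture chip.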

[2] = biological target: T2, human FAP (Homo sapiens, UniProt Q12884); assay: Enzymatic FAP competition assay (Z-Gly-Pro-AMC fluorescence), human FAP; type: biochemical; details: read-out: h. FAP, Enz., IC50
T2 construct: the biotinylated His, Avi tag, human FAP (26-760, FAP-H82Q6); His; Avi tag (biotinylated); purchased AcroBiosystems FAP-H82Q6
T2 sequence (Q12884 26-760): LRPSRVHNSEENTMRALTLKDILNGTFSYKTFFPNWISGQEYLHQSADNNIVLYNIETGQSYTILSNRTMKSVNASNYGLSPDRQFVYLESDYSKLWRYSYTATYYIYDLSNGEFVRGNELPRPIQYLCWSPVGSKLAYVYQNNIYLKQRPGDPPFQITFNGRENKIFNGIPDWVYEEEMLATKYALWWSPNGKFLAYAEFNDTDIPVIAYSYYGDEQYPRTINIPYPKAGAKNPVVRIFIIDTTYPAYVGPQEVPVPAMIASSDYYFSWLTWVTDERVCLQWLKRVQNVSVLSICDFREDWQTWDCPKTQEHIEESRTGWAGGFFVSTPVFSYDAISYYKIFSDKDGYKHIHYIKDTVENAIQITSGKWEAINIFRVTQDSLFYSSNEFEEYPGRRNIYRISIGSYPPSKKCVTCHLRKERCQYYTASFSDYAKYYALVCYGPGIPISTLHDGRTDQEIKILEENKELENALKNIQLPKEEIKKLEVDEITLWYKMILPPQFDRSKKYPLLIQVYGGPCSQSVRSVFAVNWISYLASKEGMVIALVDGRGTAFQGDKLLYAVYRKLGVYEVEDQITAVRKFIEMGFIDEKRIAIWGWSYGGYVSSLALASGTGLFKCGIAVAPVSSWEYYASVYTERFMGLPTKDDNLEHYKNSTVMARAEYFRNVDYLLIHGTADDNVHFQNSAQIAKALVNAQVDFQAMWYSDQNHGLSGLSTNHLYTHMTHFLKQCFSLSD
In short: (§1)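 IC50 values come from curve fitting of duplicate % inhibition data on AMC fluorescence (ex 380, em 460 nm) after 4 h at 22-24° C with 50 μM Z-Gly-Pro-AMC. Beforehand, peptides up to 1 μM (14 levels) sat 24 h with 0.01 nM human (26-760) or mouse (26-761) tagged FAP in phosphate buffer pH 7.5, NaCl, Tween20, 1% DMSO.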

[3] = biological target: T2, human FAP; assay: Surface plasmon resonance (SPR) for peptide affinity, human FAP; type: binding; details: read-out: h. FAP, SPR, KD
Description: Peptide affinities (KD) were determined by SPR using a Biacore™ 8K device (Cytiva) towards the following proteins: biotinylated His, Avi tag, human FAP (26-760, FAP-H82Q6), biotinylated His, Avi tag, mouse FAP (26-761, FAP-M82Q5), His tag, human DPP4 (34-766, DP4-H82E3), all purchased from AcroBiosystems and His tag, mouse DPP4 (29-760, 954-SE) from R&D Systems. The FAP proteins and their homologous were diluted to a concentration of 2 μg/mL into acetate buffer pH 5.5, then immobilized onto a CM5 sensorchip (Cytiva, BR-1005-30) to reach a response around 2000 R U. The running buffer HBS-EP+pH 7.6 (20× from Teknova CAT. No: H8022) contained 10 mM HEPES pH 7.6, 150 mM NaCl, 3 mM EDTA, 0.05% Tween20 and 2% DMSO. Experiments were carried out at 25° C. using a flow rate of 30 μL/min. Compounds were tested in single cycle kinetic mode at 8 different concentrations. Curve fitting was performed using the Biacore™ 8K evaluation software. The sensorgrams were fitted by applying a 1:1 binding model to calculate kinetic rate constants and equilibrium dissociation constants (KD).
For this assay, the setup had the same conditions (flow rate, running buffer, peptide dilution) as described above for the CM5 method. The oligo CAP reagent obtained in the CAPture Kit (Ref. 28920234) was 1/5 diluted into running buffer and used with a contact time of 300 s at a flow rate of 2 μL/min. The human and mouse FAP constructs described above were used (from AcroBiosystems or produced in house). The FAP proteins were diluted to a concentration of 2 μg/mL into acetate pH 5.5, 0.05% Tween20 and used with a contact time of 600 s at a flow rate of 10 μL/min. The peptides were tested with an association time of 280 s followed by a dissociation time of 3000 s at a flow rate of 30 μL/min. The regeneration was done using the regeneration solution (8 M guanidine-HCl, 1 M NaOH) as obtained with a contact time of 270 s at a flow rate of 10 μL/min. […] The compounds marked with an asterisk were tested against human and mouse DDP4.

[4] = biological target: T1, mouse FAP; assay: Enzymatic FAP competition assay (Z-Gly-Pro-AMC fluorescence), mouse FAP; type: biochemical; details: read-out: m. FAP, Enz., IC50
In short: as §1

| pKd [1] | pIC50 [2] | pKd [3] | pIC50 [4] | Compound |
| --- | --- | --- | --- | --- |
| 9.26 | 9.62 | 9.57 | 8.92 | CCCCC[C@@H]1NC(=O)[C@H](Cc2ccc(OCCN)cc2)NC(=O)[C@H](Cc2ccccc2)N(C)C(=O)CNC(=O)[C@@H]2CCCN2C(=O)[C@H]2CCCN2C(=O)[C@H](CC(=O)O)NC(=O)[C@H](Cc2ccc(O)cc2)NC(=O)CNC(=O)[C@H](Cc2c[nH]c3ccccc23)NC1=O [Example A32, Pro-Gly-NMePhe-F(4OEtNH2)-Ahp-Trp-Gly-Tyr-Asp-D-Pro] (cyclo(G[NMeF][AEF][Ahp(2)]WGYD[dP]P)) |
| > 10.40 | 10.74 | > 10.74 | 10.51 | Gly-Gly-NMePhe-F(4amPEG2NHDOTA-Lu)-Q(Pyrro(2CN4F2))-Trp-Gly-K(COpipzaa)-Asp-D-Pro (cyclo(GG[NMeF][F(4amPEG2NHDOTA-Lu)][Q(Pyrro(2CN4F2))]WGK(COpipzaa)D[dP]); also: Lu complex) [Example C19] |
| > 10.24 | 10.41 | > 10.52 | 9.87 | CCCCCC[C@@H]1NC(=O)[C@H](Cc2ccc(CNC(=O)COCCOCCNC(=O)CC(CC(=O)NCCOCCOCC(=O)NCc3ccc(C[C@@H]4NC(=O)[C@H](Cc5ccccc5)N(C)C(=O)CNC(=O)CNC(=O)[C@H]5CCCN5C(=O)[C@H](CC(=O)O)NC(=O)[C@H](CCCCNC(=O)N5CCN(CC(=O)O)CC5)NC(=O)CNC(=O)[C@H](Cc5c[nH]c6ccccc56)NC(=O)[C@H](CCCCCC)NC4=O)cc3)NC(=O)CN3CCN(CC(=O)O)CCN(CC(=O)O)CCN(CC(=O)O)CC3)cc2)NC(=O)[C@H](Cc2ccccc2)N(C)C(=O)CNC(=O)CNC(=O)[C@H]2CCCN2C(=O)[C@H](CC(=O)O)NC(=O)[C@H](CCCCNC(=O)N2CCN(CC(=O)O)CC2)NC(=O)CNC(=O)[C@H](Cc2c[nH]c3ccccc23)NC1=O [Example M1] (I: cyclo(GG[NMeF][Phe(4-CH2NH2)][Aoc(2)]WGK([CO-Piperazinyl(4-CH2COOH)])D[dP]) / II: cyclo(GG[NMeF][Phe(4-CH2NH2)][Aoc(2)]WGK([CO-Piperazinyl(4-CH2COOH)])D[dP]); linker I:4-II:4 via X1) |
| > 10.66 | 11.15 | > 10.89 | 10.74 | CCCOCC[C@@H]1NC(=O)[C@H](Cc2ccc(CNC(=O)COCCOCCNC(=O)CN3CCN(CC(=O)O)CCN(CC(=O)O)CCN(CC(=O)O)CC3)cc2)NC(=O)[C@H](Cc2ccccc2)N(C)C(=O)CNC(=O)CNC(=O)[C@H]2CCCN2C(=O)[C@H](CC(=O)O)NC(=O)[C@H](CCCCNC(=O)N2CCN(CC(=O)O)CC2)NC(=O)CNC(=O)[C@H](Cc2c[nH]c3ccccc23)NC1=O [Example B2, Gly-Gly-NMePhe-F(4ampEG2NHDOTA)-hS(Pr)-Trp-Gly-K(COpipzaa)-Asp-D-Pro] (cyclo(D[dP]GG[NMeF][Phe(4-CH2NH2)]([AEEA-DOTA])[hSer](Propyl)WGK([CO-Piperazinyl(4-CH2COOH)]))) |
